Data on 3 compounds can be found in PubChem BioAssay (NCI).

What all share (experiment): NCI tumour cell line growth inhibition, 48 h
For test [1], the system named is 786-0 renal.
For test [2], the system named is NCI-H522 lung.
The subject of test [3] is MCF7 breast.
The subject of test [4] is M14 melanoma.
The subject of test [5] is IGROV1 ovarian.
Test [6] has as its system HOP-92 NSCLC.
For test [7], the system named is HCT-116 colon.
Test [8] relates to EKVX NSCLC.
Test [9] relates to SN12C renal.
Test [10] has as its system SK-OV-3 ovarian.

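How tested: cells in 96-well plates exposed to compound for 48 hours at five concentrations. Abbreviation: GI50, concentration required for 50% inhibition of growth. TGI is the concentration that stops growth completely.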

Take `COc1cc2cc(Oc3ccc(NC(=O)Nc4ccc(Cl)c(Cl)c4)cc3)c(C)nc2cc1OC`: the GI50 in [1] is 3.64 µM; in test [2] it was 1.74 µM; in [3], 2.89 µM; in [4] it was 2.56 µM; in test [5], 5.61 µM; in test [6], 2.04 µM. For the same compound, the GI50 in test [7] is 2.26 µM; in test [8], 2.36 µM; in test [9], 3.39 µM; in test [10], 7.56 µM. The TGI in test [1] came to 17.7 µM; in test [2] it was 8.43 µM; in test [3], 13.8 µM; in test [4] it was 10.5 µM; in test [5], 46.1 µM; in test [6], 4.88 µM. Besides, the TGI stood at 10.5 µM in test [7], 9.51 µM in test [8], 20.5 µM in test [9] and 26.4 µM in test [10].

In the case of `CC(=O)c1c(C)[nH]c(-c2nc3ccc(N4CCN(C)CC4)cc3[nH]2)c1-c1ccccc1`, the GI50 is 1.71 µM in [1]; 0.258 µM in [2]; 0.266 µM in test [3]; 1.1 µM in test [4]; 1.12 µM in [5]; 0.585 µM in [6]. For the same compound, the GI50 in [7] is 1.54 µM; in [8], 2.03 µM; in [9] it was 2.34 µM; in [10], 0.97 µM. The TGI in test [1] came to 20.5 µM; in test [2] it was 14.4 µM; in test [3] it was 13.5 µM; in test [4], 19.4 µM; in test [5] it was 14.4 µM; in test [6], 24.5 µM. The TGI in test [7] was 17.2 µM; in test [8], > 100 µM; in test [9], 23.2 µM; in [10], > 100 µM.

On to `CO[C@H]1C[C@@H]2CC[C@@H](C)[C@@](O)(O2)C(=O)C(=O)N2CCCC[C@H]2C(=O)O[C@H]([C@H](C)C[C@@H]2CC[C@@H](OCCO)[C@H](OC)C2)CC(=O)[C@H](C)C=C(C)[C@@H](O)[C@@H](OC)C(=O)[C@H](C)C[C@H](C)/C=C/C=C/C=C1C`, for which the GI50 was < 0.01 µM in test [1]; < 0.01 µM in [3]; 3.12 µM in test [4]; < 0.01 µM in test [5]; 0.0199 µM in test [6]; 3.43 µM in test [7]. Besides, the figures for the GI50 in test [8], in test [9] and in [10] were < 0.01 µM, 1.82 µM and < 0.01 µM, respectively. The TGI in test [1] was 20.7 µM; in [2], 17.7 µM; in test [3] it was 14 µM; in test [4], 20.5 µM; in [5] it was 17 µM; in [6], 20 µM. Also, the TGI is 18.9 µM in test [7], 21.5 µM in test [8], 31.1 µM in test [9] and 20.5 µM in test [10].
